Each structure is given as a SMILES string. pIC50: −log10 of the molar value. Where a name gives a salt, the structure may show the parent alone.

A word on the pIC50: it is −log10 of the IC50, conventionally taken in molar units. A low value points to a large IC50. One may read the melting point as the temperature of the solid-liquid transition.

The target in data set [1] is T1, HCMV polymerase (Human cytomegalovirus, UniProt P08546).
T1 construct: made in house; host or cells: recombinant baculovirus-infected SF-9 cells
T1 sequence (P08546 whole entry): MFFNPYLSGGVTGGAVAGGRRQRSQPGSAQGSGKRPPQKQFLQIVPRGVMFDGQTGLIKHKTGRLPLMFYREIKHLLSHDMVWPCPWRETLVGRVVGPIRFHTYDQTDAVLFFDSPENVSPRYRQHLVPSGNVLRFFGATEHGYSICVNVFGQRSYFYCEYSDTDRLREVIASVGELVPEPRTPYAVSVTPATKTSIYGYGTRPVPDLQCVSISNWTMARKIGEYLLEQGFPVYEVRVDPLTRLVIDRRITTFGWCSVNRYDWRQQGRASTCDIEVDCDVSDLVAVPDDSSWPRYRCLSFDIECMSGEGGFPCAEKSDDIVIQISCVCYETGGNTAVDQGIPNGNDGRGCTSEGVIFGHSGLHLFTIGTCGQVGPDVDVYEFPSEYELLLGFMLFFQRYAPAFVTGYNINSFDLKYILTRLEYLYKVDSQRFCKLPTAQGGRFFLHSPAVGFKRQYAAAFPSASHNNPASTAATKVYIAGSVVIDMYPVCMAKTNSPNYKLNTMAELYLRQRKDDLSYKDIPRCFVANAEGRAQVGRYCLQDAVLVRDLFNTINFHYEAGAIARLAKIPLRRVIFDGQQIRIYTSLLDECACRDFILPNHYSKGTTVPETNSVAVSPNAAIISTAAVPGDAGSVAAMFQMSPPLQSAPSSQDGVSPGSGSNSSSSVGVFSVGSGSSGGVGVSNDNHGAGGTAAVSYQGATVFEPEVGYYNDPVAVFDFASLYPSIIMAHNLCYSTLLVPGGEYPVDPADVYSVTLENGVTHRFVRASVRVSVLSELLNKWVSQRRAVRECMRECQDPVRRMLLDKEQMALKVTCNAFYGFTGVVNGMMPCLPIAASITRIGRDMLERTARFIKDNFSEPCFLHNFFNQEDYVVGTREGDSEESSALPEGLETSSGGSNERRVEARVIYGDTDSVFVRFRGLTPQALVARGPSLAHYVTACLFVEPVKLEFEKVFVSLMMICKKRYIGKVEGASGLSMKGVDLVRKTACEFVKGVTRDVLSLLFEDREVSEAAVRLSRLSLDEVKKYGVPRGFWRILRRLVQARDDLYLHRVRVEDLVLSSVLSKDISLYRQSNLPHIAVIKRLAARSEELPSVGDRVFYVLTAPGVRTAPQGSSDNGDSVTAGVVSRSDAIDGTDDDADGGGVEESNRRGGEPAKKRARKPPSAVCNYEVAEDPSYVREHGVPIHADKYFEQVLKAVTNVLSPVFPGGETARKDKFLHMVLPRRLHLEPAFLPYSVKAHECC
In words: HCMV polymerase scintillation proximity assay (modified version). In kind it is biochemical. The note with it: for pIC50: modified SPA assay, compounds diluted in 100% DMSO, 4.5 mM DTT. The procedure:
(§1) The HCMV polymerase assay is performed using a scintillation proximity assay (SPA) as described in several references, such as N. D. Cook, et al., Pharmaceutical Manufacturing International, pages 49-53 (1992); K. Takeuchi, Laboratory Practice, September issue (1992); U.S. Pat. No. 4,568,649 (1986); which are incorporated by reference herein. Reactions are performed in 96-well plates. The assay is conducted in 100 μl volume with 5.4 mM HEPES (pH 7.5), 11.7 mM KCl, 4.5 mM MgCl2, 0.36 mg/ml BSA, and 90 nM ^3H-dTTP. Assays are run with and without CHAPS, (3-[(3-Cholamidopropyl)-dimethylammonio]-1-propane-sulfonate) at a final concentration of 2 mM. HCMV polymerase is diluted in enzyme dilution buffer containing 50% glycerol, 250 mM NaCl, 10 mM HEPES (pH 7.5), 100 μg/ml BSA, and 0.01% sodium azide. The HCMV polymerase, which is expressed in recombinant baculovirus-infected SF-9 cells and purified according to literature procedures, is added at 10% (or 10 μl) of the final reaction volume, i.e., 100 μl. Compounds are diluted in 50% DMSO and 10 μl are added to each well. Control wells contain an equivalent concentration of DMSO. Unless noted otherwise, reactions are initiated via the addition of 6 nM biotinylated poly(dA)-oligo(dT) template/primer to reaction mixtures containing the enzyme, substrate, and compounds of interest. Plates are incubated in a 25° C. or 37° C. H2O bath and terminated via the addition of 40 μl/reaction of 0.5 M EDTA (pH 8) per well. Reactions are terminated within the time-frame during which substrate incorporation is linear and varied depending upon the enzyme and conditions used, i.e., 30 min. for HCMV polymerase. Ten μl of streptavidin-SPA beads (20 mg/ml in PBS/10% glycerol) are added following termination of the reaction. Plates are incubated 10 min. at 37° C., then equilibrated to room temperature, and counted on a Packard Topcount. Linear regressions are performed and IC50's are calculated using computer software.
(§2) A modified version of the above HCMV polymerase assay is performed as described above, but with the following changes: Compounds are diluted in 100% DMSO until final dilution into assay buffer. In the previous assay, compounds are diluted in 50% DMSO. 4.5 mM dithiothreitol (DTT) is added to the polymerase buffer.
For orientation: SPA uses beads or plates that emit light when radiolabelled molecules are held near them.

The target of data set [2] is HSV polymerase (Human herpesvirus 1, UniProt P04293). Briefly: HSV polymerase assay (Table 1). In kind it is biochemical.
HSV polymerase, sequence (P04293 whole entry): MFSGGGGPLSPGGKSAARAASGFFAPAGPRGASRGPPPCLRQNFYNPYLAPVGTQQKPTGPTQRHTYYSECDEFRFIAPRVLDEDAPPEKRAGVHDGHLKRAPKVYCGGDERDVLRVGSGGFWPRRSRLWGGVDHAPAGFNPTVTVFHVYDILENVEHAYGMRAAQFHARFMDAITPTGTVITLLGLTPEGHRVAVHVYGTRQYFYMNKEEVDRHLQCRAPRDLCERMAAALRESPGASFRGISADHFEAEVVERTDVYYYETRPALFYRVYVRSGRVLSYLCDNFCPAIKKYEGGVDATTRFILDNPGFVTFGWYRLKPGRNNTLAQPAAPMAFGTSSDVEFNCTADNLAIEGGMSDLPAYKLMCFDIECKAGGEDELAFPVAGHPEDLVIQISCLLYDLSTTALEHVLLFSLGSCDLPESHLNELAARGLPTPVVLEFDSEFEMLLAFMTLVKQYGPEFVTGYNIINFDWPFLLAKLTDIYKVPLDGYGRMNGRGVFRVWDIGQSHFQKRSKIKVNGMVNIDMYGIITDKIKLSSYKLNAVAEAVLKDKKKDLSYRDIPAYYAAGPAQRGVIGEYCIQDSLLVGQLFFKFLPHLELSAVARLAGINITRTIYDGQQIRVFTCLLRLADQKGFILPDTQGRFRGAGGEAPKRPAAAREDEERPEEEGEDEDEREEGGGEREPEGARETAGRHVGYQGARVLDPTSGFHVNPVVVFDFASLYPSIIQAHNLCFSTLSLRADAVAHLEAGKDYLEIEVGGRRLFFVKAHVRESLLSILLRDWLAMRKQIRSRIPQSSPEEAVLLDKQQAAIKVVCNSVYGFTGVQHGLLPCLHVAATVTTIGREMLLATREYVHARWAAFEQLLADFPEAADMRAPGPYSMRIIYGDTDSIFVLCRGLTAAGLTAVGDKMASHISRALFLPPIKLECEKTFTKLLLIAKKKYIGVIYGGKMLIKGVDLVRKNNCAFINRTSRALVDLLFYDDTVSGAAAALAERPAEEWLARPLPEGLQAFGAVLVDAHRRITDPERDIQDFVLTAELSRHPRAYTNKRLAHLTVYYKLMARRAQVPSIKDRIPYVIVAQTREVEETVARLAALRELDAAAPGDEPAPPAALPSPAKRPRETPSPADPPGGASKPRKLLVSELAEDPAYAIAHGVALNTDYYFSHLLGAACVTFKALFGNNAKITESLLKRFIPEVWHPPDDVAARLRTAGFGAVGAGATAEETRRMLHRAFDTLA
Data set [3] concerns the target VZV polymerase (Varicella-zoster virus, UniProt P09252). Briefly: VZV polymerase assay (Table 1). In kind it is biochemical. On the procedure: [The source words this procedure for another target and says it was used here with some conditions changed.] as §1, §2

VZV polymerase, sequence (P09252 whole entry): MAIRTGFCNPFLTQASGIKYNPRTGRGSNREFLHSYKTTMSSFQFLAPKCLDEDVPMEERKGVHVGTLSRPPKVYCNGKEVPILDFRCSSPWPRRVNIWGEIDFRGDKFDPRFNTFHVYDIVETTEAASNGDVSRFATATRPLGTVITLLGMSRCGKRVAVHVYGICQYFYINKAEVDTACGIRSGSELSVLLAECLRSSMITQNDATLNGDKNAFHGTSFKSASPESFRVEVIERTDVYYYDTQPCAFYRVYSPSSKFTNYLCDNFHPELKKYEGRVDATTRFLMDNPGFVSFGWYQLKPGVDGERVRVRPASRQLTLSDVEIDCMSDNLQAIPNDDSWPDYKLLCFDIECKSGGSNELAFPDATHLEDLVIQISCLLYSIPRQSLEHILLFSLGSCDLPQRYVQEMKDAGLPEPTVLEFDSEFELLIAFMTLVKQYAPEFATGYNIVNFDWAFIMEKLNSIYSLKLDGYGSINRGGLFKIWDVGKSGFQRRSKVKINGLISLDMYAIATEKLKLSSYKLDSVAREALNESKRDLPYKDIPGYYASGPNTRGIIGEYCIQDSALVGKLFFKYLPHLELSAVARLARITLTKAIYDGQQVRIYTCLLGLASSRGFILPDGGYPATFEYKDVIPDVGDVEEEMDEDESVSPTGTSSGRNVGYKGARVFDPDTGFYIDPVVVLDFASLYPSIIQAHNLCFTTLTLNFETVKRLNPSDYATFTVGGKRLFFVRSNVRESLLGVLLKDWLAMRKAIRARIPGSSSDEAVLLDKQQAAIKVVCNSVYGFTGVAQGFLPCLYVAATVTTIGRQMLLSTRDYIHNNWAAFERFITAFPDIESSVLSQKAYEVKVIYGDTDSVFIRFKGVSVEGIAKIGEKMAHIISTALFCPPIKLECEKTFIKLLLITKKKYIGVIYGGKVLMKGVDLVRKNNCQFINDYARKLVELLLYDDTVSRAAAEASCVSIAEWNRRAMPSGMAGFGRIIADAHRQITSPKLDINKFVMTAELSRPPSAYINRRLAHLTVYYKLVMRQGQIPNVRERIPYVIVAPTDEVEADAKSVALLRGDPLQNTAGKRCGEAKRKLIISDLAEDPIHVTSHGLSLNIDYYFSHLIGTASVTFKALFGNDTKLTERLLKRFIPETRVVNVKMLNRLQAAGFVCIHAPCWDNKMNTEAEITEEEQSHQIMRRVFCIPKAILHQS

Regarding `O=C(NCc1ccc(Cl)cc1)c1cn2c3c(cc(CN4CCOCC4)cc3c1=O)OCCC2` [Example 1, N-(4-Chlorobenzyl)-10-(4-morpholinylmethyl)-8-oxo-3,4-dihydro-2H,8H-[1,4]oxazepino [2,3,4-ij]quinoline-7-carboxamide], the melting point was in the range of 195 to 197 °C. In data set [1], this molecule showed a pIC50 of 6.19.

Consider `O=C(NCc1ccc(Cl)cc1)c1cn2c(=O)[nH]c3cc(CN4CCOCC4)cc(c1=O)c32` [Example 2, N-(4-Chlorobenzyl)-8-(4-morpholinylmethyl)-2,6-dioxo-1,2-dihydro-6H-imidazo[4,5,1-ij]quinoline-5-carboxamide], for which the pIC50 was 6.11 in data set [1], 6.13 in data set [2] and 6.28 in data set [3].

As to `O=C1Cn2cc(C(=O)NCc3ccc(Cl)cc3)c(=O)c3cc(CN4CCOCC4)cc(c32)N1` [Example 3, N-(4-Chlorobenzyl)-9-(4-morpholinylmethyl)-2,7-dioxo-2,3-dihydro-1H,7H-pyrido[1,2,3-de]quinoxaline-6-carboxamide], the negative logarithm of the IC50 (pIC50) in data set [1] was 6.85; in data set [2], over 6.29; in data set [3] it was 7.22.

Take `O=C(NCc1ccc(Cl)cc1)c1cn2c3c(cc(CN4CCOCC4)cc3c1=O)N=C(NCc1ccc(Cl)cc1)C2` [Example 4, N-(4-Chlorobenzyl)-2-[(4-chlorobenzyl)amino]-9-(4-morpholinylmethyl)-7-oxo-3H,7H-pyrido[1,2,3-de]quinoxaline-6-carboxamide]: the pIC50 in data set [1] was 6.80; in data set [3], 6.74.

Molecule `O=C(NCc1ccc(Cl)cc1)c1cn2c3c(cc(C#CCO)cc3c1=O)CC2CO` (stereo not shown) [Example 5, N-(4-Chlorobenzyl)-2-(hydroxymethyl)-8-(3-hydroxy-1-propynyl)-6-oxo-1,2-dihydro-6H-pyrrolo[3,2,1-ij]quinoline-5-carboxamide] had a melting point of 224 to 225 °C. This molecule had a pIC50 in data set [1] of 5.49.

As for `CC1(C)Cc2cc(C#CCO)cc3c(=O)c(C(=O)NCc4ccc(Cl)cc4)cn1c23` [Example 6, N-(4-Chlorobenzyl)-8-(3-hydroxyprop-1-ynyl)-2,2-dimethyl-6-oxo-1,2-dihydro-6H-pyrrolo[3,2,1-ij]quinoline-5-carboxamide], the melting point is 228 °C (dec.). In data set [1], this molecule gave a pIC50 of 5.40.

In the case of `O=C(NCc1ccc(Cl)cc1)c1cc2c3c(cc(CN4CCOCC4)cn3c1=O)CCC2` [Example 7, N-(4-Chlorobenzyl)-6-(morpholin-4-ylmethyl)-3-oxo-9,10dihydro-3H,8H-pyrido[3,2,1-ij]quinoline-2-carboxamide], the melting point is 200 to 201 °C. Further, the pIC50 in data set [1] was 5.40.

On to `CC1C(=O)Nc2cc(CN3CCOCC3)cc3c(=O)c(C(=O)NCc4ccc(Cl)cc4)cn1c23` (stereo not shown) [Example 8, N-(4-Chlorobenzyl)-3-methyl-9-(4-morpholinylmethyl)-2,7-dioxo-2,3-dihydro-1H,7H-pyrido[1,2,3-de]quinoxaline-6-carboxamide hydrobromide], for which the pIC50 in data set [1] is 6.37; in data set [2], 6.70; in data set [3], 7.05.

In the case of `O=C1CCn2cc(C(=O)NCc3ccc(Cl)cc3)c(=O)c3cc(CN4CCOCC4)cc(c32)N1` [Example 9, N-(4-Chlorobenzyl)-10-(4-morpholinylmethyl)-2,8-dioxo-1,2,3,4-tetrahydro-8H-[1,4]diazepino[3,2,1-ij]quinoline-7-carboxamide], the pIC50 in data set [1] is 6.17; in data set [2], 6.55; in data set [3], 6.77.

Turning to `O=C(NCc1ccc(Cl)cc1)c1cn2c3c(cc(CN4CCOCC4)cc3c1=O)N=C(NCc1ccccc1)C2` [Example 10, 2-(Benzylamino)-N-(4-chlorobenzyl)-9-(4-morpholinylmethyl)-7-oxo-3H,7H-pyrido[1,2,3-de]quinoxaline-6-carboxamide], the melting point was 235 to 240 °C. In data set [1], this molecule gave a negative-log IC50 (pIC50) of 6.51. In data set [2], this molecule gave a pIC50 of 6.51. For the same molecule, in data set [3], the pIC50 was 6.92.

`CN1C(=O)Cn2cc(C(=O)NCc3ccc(Cl)cc3)c(=O)c3cc(C#CCO)cc1c32` [Example 11, N-(4-Chlorobenzyl)-9-(3-hydroxy-1-propynyl)-1-methyl-2,7-dioxo-2,3-dihydro-1H,7H-pyrido[1,2,3-de]quinoxaline-6-carboxamide] showed a pIC50 in data set [1] of 5.94.

In the case of `O=C(NCc1ccc(Cl)cc1)c1cn2c3c(cc(CN4CCOCC4)cc3c1=O)CN(Cc1ccccc1)C2` [Example 12, 2-Benzyl-N-(4-chlorobenzyl)-9-(4-morpholinylmethyl)-7-oxo-2,3-dihydro-1H,7H-pyrido[3,2,1-ij]quinazoline-6-carboxamide], the negative-log IC50 (pIC50) in data set [1] is 5.78.

In the case of `O=C(NCc1ccc(Cl)cc1)c1cn2c3c(cc(CN4CCOCC4)cc3c1=O)CN(Cc1ccccc1)C2=O` [Example 13, 2-Benzyl-N-(4-chlorobenzyl)-9-(4-morpholinylmethyl)-3,7-dioxo-2,3-dihydro-1H,7H-pyrido[3,2,1-ij]quinazoline-6-carboxamide], the inhibition at 20 µM in data set [1] (at 20 μM, read-out: Polymerase HCMV, percent inhibition at the given concentration) was determined as 39%.

In data set [1], `O=C(NCc1ccc(Cl)cc1)c1cn2c3c(cc(CN4CCOCC4)cc3c1=O)CN(Cc1ccccc1)C(=O)C2` [Example 14, 2-Benzyl-N-(4-chlorobenzyl)-10-(4-morpholinylmethyl)-3,8-dioxo-1,2,3,4-tetrahydro-8H-[1,4]diazepino[6,7,1-ij]quinoline-7-carboxamide] showed a pIC50 of 5.22.

`CN1COc2cc(C#CCO)cc3c(=O)c(C(=O)NCc4ccc(Cl)cc4)cn1c23` [Example 15, N-(4-Chlorobenzyl)-9-(3-hydroxyprop-1-ynyl)-3-methyl-7-oxo-2,3-dihydro-7H-[1,3,4]oxadiazino[6,5,4-ij]quinoline-6-carboxamide]: the melting point lay in the range of 231 to 233 °C. Further, in data set [1], the pIC50 was 5.38.

Regarding `CN1CCc2cc(C#CCO)cc3c(=O)c(C(=O)NCc4ccc(Cl)cc4)cn1c23` [Example 16, N-(4-Chlorobenzyl)-5-(3-hydroxyprop-1-ynyl)-1-methyl-7-oxo-2,3-dihydro-1H,7H-pyrido[3,2,1-ij]cinnoline-8-carboxamide], the melting point lay in the range of 165 to 167 °C. Further, the pIC50 in data set [1] was 5.10.

(Values after US6624159B2, “Heterocycle carboxamides as antiviral agents” (Pharmacia & Upjohn Company, priority 2000, dated 2003).)
